We go through two compounds from patent publication EP4523686A1, “A SIGMA-1 RECEPTOR POSITIVE MODULATOR FOR ITS USE IN THE PREVENTION AND THE TREATMENT OF A PATHOLOGY” (priority 2023, dated 2025).

For assay [1], the system named is wfs1ab^KO zebrafish larvae. The assay can be described thus: Visual motor response in zebrafish larvae (hyperlocomotor response). The assay is classed as in vivo. Conditions: at 3 µM in fish water. The procedure: The visual motor response assay quantifies the locomotor activity of the zebrafish larvae to light intensity changes. The protocol was previously described (Crouzier et al., 2021a, 2021b, 2022). In brief, 5 dpf larvae were transfered in a 96-well plate (#7701-1651, Whatman) with 300 µl of fish water and placed in a Zebrabox® (ViewPoint, Lissieu, France). The locomotor behavior was monitored using an automated videotracking device equipped with an infra-red (IR) camera under IR light illumination (Zebralab®, Viewpoint). The light protocol was as follow: 30 min of acclimatization in the dark (0% light intensity), then 2 cycles of 10-min duration light ON and 10-min duration light OFF periods. The brightness changes were immediate (<< 1 s). The activity was measured in mm/s. For each larva, the mobility were calculated as mean (OFF-ON) values to account for inter- and intra-group variability in locomotor response.
A phenotypic test described by Crouzier et al. (2022) was performed. […] Compounds were added in the fish water of larvae at 4 dpf for 24 h, and screening parameters included: (1) the lack of toxicity (including grossly observable morphological alterations) after 24 h exposure; (2) the locomotor increase in wfs1ab^KO larvae, expressed as % of V-treated wfs1ab^KO response; (3) the eventual alteration of locomotion in wfs1ab^WT larvae, expressed as % of V-treated wfs1ab^WT response; and (4) the Protection index (PI) calculated as detailed in the Methods section.

For assay [2], the system named is Dizocilpine-induced learning impairments in mice. Kind of assay: Spontaneous alternation in the Y-maze, Dizocilpine-induced learning impairments. The following applies: at the highest dose tested (range 0.1-3 mg/kg IP). The assay is classed as in vivo. As for the experimental part: The Y-maze is made of grey polyvinylchloride. Each arm is 40 cm long, 13 cm high, 3 cm wide at the bottom, 10 cm wide at the top, and converging at an equal angle. Each mouse was placed at the end of one arm and allowed to move freely through the maze during an 8 min session. The series of arm entries, including possible returns into the same arm, were checked visually. An alternation is defined as entries into all three arms on consecutive occasions. The number of maximum alternations is therefore the total number of arm entries minus two and the percentage of alternation was calculated as (actual alternations / maximum alternations) × 100 (Maurice et al., 1996; Meunier et al., 2006, 2013). Exclusion criteria are locomotion < 10 or percentage of alternation < 25% or > 90%. Animals showing these readouts are excluded from the calculations. Attrition is routinely < 5% in this test.
Due to the chaperone nature of SIG-1R, a SIG-1R positive modulator behaves as an agonist in vivo, particularly on learning and memory abilities in mice (Maurice et al., 2019; Vavers et al., 2019). Convolamine was tested on Dizocilpine-induced learning impairments, a well-characterized SIG-1R-mediated response in mice (Maurice et al., 1994, 2001). The NMDA receptor noncompetitive antagonist Dizocilpine (0.15 mg/kg IP) prevented spontaneous alternation behavior (Fig. 4A) and increased mobility (Fig. 4B) in the Y-maze. […] Co-treatment with the SIG-1R antagonist NE-100 at 1 mg/kg IP, blocked the attenuating effect of Convolamine (Fig. 4C), thus confirming the SIG-1R-mediated effect.

Assay [3] shares this test system. The assay can be described thus: Step-through passive avoidance, Dizocilpine-induced learning impairments. In kind it is in vivo. From the text:
The apparatus is a two-compartments (15 × 20 × 15 cm high) box with one illuminated with white polyvinylchloride walls and the other darkened with black polyvinylchloride walls and a grid floor. A guillotine door separates each compartment. A 60 W lamp positioned 40 cm above the apparatus lights up the white compartment during the experiment. Scrambled foot shocks (0.3 mA for 3 s) could be delivered to the grid floor using a shock generator scrambler (Lafayette Instruments, Lafayette, USA). The guillotine door was initially closed during the training session. Each mouse was placed into the white compartment. After 5 s, the door was raised. When the mouse entered the darkened compartment and placed all its paws on the grid floor, the door is closed and the foot shocks delivered for 3 s. The step-through latency (STL-Tg), that is, the latency spent to enter the darkened compartment, and the number of vocalizations were recorded. The retention test was carried out 24 h after training. Each mouse was placed again into the white compartment. After 5 s, the door was raised. The step-through latency (STL-R) was recorded up to 300 s (Meunier et al., 2006, 2013; Villard et al., 2009, 2011). An exclusion criteria was STL-Tg and STL-R < 10 s. Animals showing these readouts are excluded from the calculations. Attrition is routinely < 5% in this test.

In assay [4] the target is T1, SIG-1R/BiP (Homo sapiens, UniProt Q99720).
T1 construct: host or cells: CHO cells overexpressing GFP-SIG-1R
T1 sequence (Q99720 whole entry): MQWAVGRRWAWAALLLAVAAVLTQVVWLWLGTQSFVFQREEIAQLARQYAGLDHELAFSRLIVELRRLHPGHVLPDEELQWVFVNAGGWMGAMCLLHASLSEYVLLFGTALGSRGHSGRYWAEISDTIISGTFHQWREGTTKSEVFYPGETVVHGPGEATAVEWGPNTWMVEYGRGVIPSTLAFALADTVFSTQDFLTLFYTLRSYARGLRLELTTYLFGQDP
Kind of assay: SIG-1R/BiP dissociation assay in GFP-SIG-1R-overexpressing CHO cells. The assay is classed as cell-based. The following applies: compound alone, at concentrations up to 30 µM. As for the experimental part: CHO cells which overexpress GFP tagged-SIG-1R (gift from Tsung-Ping Su, NIDA/NIH, Baltimore, MD, USA) were maintained in DMEM/Glutamax culture medium supplemented with 10% heat inactivated FBS. GFP-SIG-1Roe CHO cells were plated in 6-well plates and treated with test compounds dissolved in culture medium for 30 min at 37°C. The reaction was terminated by removing the culture medium containing the test drug and replacing it with 1 ml of PBS. GFP-SIG-1R-oe CHO cells were harvested and suspended in PBS (pH 7.4) followed by cross-linking with 50 µg/ml of dithiobis succinimidyl propionate (ThermoFisher, France). The reaction was stopped by adding Tris/HCl 50 mM (pH 8.8). After a 15 min incubation on ice, cells were lysed with 50 mM Tris (pH 7.4), 150 mM NaCl, 1% Triton X/100, 0.3% sodium deoxycholate, 0.1% SDS buffer containing a protease inhibitor cocktail (Sigma-Aldrich, France). After centrifugation at 16,000 g for 1 min, the supernatant was incubated with Chromotek GFP-trap agarose (Proteintech, United Kingdom) overnight at 4°C.

Molecules are shown by their SMILES.

As for `COc1ccc(C(=O)OC2CC3CCC(C2)N3)cc1OC` (stereo not drawn) [Convolvine, reference compound], the “hyperlocomotor response of wfs1ab^KO zebrafish (in words)” value in assay [1] is given as “failed to attenuate”. In addition, the “Dizocilpine-induced alternation deficit (in words)” value in assay [2] was “significantly attenuated”. The “Dizocilpine-induced decrease in step-through latency (in words)” value in assay [3] (at 0.3 mg/kg IP) is “attenuated, but in a non-significant manner”. In addition, the “Dizocilpine-induced increase in escape latency (in words)” value in assay [3] (at the highest doses tested (range 0.1-3 mg/kg IP)) is listed as “attenuated, but in a non-significant manner”.

For `CCCN(CCC)CCc1ccc(OC)c(OCCc2ccccc2)c1` [NE-100, reference compound], the “dissociation of SIG-1R from BiP (in words)” value in assay [4] is recorded as “ineffective”. In assay [1], the “hyperlocomotor response of wfs1ab^KO zebrafish (in words)” value is on record as “failed to affect”.
